Assay results published in patent US5858985A, “Treatment of asthma with fructose-1,6-diphosphate” (priority 1997, dated 1999).
Several values for one entry are separate records, joined by “and”; a condition that tells them apart may be missing. Equal values may be shown once. Entries after “also recorded” stand apart in the source; their conditions may differ. Read-outs that look alike come from different tables or passages of the source.

Legend:
human volunteers = test: lung function (peak expiratory flow rate) in healthy human volunteers after nebulized inhalation; format: in vivo
Method: When adjusted to deliver 56-68 L/min with a 5-6 L/min oxygen flow, the final oxygen content was 28%. The output tube from the nebulizer was connected to a standard face mask, which was placed on the face of the subject. The bottle of the nebulizer contained 100 ml of the FDP solution. The FDP dose delivered in the mist, during the 5 consecutive breaths, was calculated to be about 12 mg.
Prior to the FDP inhalation, in each volunteer, 3 consecutive peak expiratory flow rate (PEFR) measurements were made with the aid of an Astech Peak Flow Meter (Center Laboratories, Port Washington, N.Y. 11050). Briefly, these tests involved having each volunteer take as deep a breath as possible, and then blow as hard as possible into the meter. This was done over a period of a couple of minutes, giving the volunteer some time to catch their breath before and after each effort. The mean of these three measurements was considered as the baseline PEFR value for that person. Baseline heart rates, systolic and diastolic blood pressures, and body temperatures were also measured.
FDP inhalations (5 breaths in each set) were then made, approximately 15, 30, 45, 75, 105 and 165 minutes after the baseline measurements had been made. On several occasions, FDP inhalations were also made, 2 and 5 minutes after the baseline measurements were taken. After each such inhalation, three different expirations were measured, all within a couple of minutes after the FDP inhalation had been completed. The various measurements made after FDP inhalation were compared with the baseline values, before FDP administration. The t-test was used to compare paired observations, and differences were considered significant only when the two-tailed p value was <0.05.

rat T-lymphocyte = test: inhibition of T-lymphocyte proliferation after stimulation with Con-A ((3H)-thymidine incorporation); format: cell-based
Method: Lymphocyte cells were isolated either from human venous blood or rat spleen. The cells were suspended in Dulbecco's media. A manual cell count was done using 0.1 ml of Trypan blue and 0.1 ml of the cell media mixture. […] Tissue culture multi-well plates were used for incubation and in each well 0.1 ml of cell suspension was placed. To the FDP treatment wells (in triplicate) were added 0.1 ml of FDP from 10% stock solution, in serial dilutions which included 1:10, 1:100, 1:250, 1:500; 1:1000, and 1:10000). Cyclosporine treatment wells received 0.1 ml cyclosporine A, at various concentrations including 500 ng/ml, 50 ng/ml; 5 ng/ml and 0.5 ng/ml. All wells except control wells received concanavalin A (conA) at […] (0.01 ml). The final volume for all wells was 0.21 ml.
After incubation, the cells were pulsed in 5% Co2 at 37° C. with 1 μCi of (^3 H)-thymidine (i.e., the cells were incubated for a controlled period of time with thymidine, one of the building blocks of DNA, which contained tritium, a radioactive isotope of hydrogen). The cells were harvested, and washed to remove any tritiated thymidine that had not been incorporated into new DNA. The radioactivity levels of the treated cells were then measured, using a scintillation counter. The results, in Table 2, are reported as counts/min.

[1] = tested on: membrane-bonded Na+--K+ ATPase enzymes; format: biochemical, rat; conditions: pretreatment with 500 μM FDP
Method: Oleander toxins were prepared by air-drying leaves from red-flowering Nerium oleander plants for 4 days, pulverizing the leaves to a fine powder in a blender, and extracting the leaves in a 95% ethyl alcohol solution for 10 days. After extraction, the tincture was filtered, and part of the alcohol solvent was removed by flash evaporation, to a volume where 1 gram of crude drug was equal to 1 ml of alcohol solution. The extract was stored as a stock solution at 0° C., and periodically analyzed for alkaloid content by high pressure liquid chromatography, using oleandrin as an external standard. […]
When ready for use, intact isolated rat hearts were transferred to ice-cold homogenizing medium (50 mM Na2 HPO4, 10 mM Na2 EDTA, and 25 mM NaF, pH 7.4). […]
The pellet obtained after this centrifugation, consisting of crude membrane vesicles, was suspended in a storage buffer (30 mM histidine, 0.25 M sucrose, 10 mM EDTA, and 10 mM NaF, pH 7.5) and stored at -80° C. until use. Protein content was determined using a Biorad protein assay kit, with gamma globulin as a standard.
The Na^+ --K^+ ATPase activity levels for these sarcolemmal membrane preparations was determined calorimetrically by measuring how much inorganic phosphate (Pi) was liberated when the ATPase enzyme hydrolyzed ATP to release phosphate groups. […]

[2] = tested on: Sprague-Dawley rats injected with compound 48/80; test: compound 48/80-induced shock (histamine release by mast cells) in rats; format: in vivo, rat
Method: As noted above, the release of histamine by mast cells plays a significant role in aggravating asthma attacks. FDP was evaluated to determine whether it could help suppress histamine release by mast cells, in tests that use a compound called "48/80", which is known to trigger the release of histamine by mast cells. This compound, if injected into an animal at an appropriate dosage, will trigger sufficient histamine release to send the animal into anaphylactic shock, which poses a lethal challenge. Useful physiological measurements can be made during the test period, and if mortality is studied as an endpoint, an animal is deemed to survive if it lives for 48 hours after injection of the 48/80 compound.
Anesthetized male Sprague-Dawley rats (n=20) weighing 448±7.4 gm were randomly assigned into 2 groups. Animals in the FDP-treated group were injected intraperitoneally (IP) with a 10% (w/v) solution of FDP in water, at a dosage of 2.5 gm/kg (i.e., 2.5 grams of FDP per kilogram of body weight). […] Thirty minutes later, all rats were injected IP with compound 48/80, at 5 mg/kg.

[3] = tested on: human test subject with chronic cough; test: repeated FDP inhalation in a volunteer with chronic cough secondary to allergic bronchitis; format: in vivo
Description: This subject participated in several studies over 10 days. Prior to FDP inhalation, their baseline PEFR was 390 L/min. This value increased with each and every FDP treatment.

[4] = tested on: RNA encoding the IL-2 protein; test: IL-2 RNA expression in ConA-stimulated lymphocytes (reverse transcription, PCR, densitometry); format: cell-based; conditions: rat lymphocytes pre-treated with FDP, ConA stimulation, 5 days of incubation
Method: The Applicant also investigated the expression of cytokines by T-lymphocytes. Isolated lymphocytes were obtained from rats, and incubated with stimulation by ConA treatment, as described above; treated cells were pre-treated with FDP, as described above, while control cells were not treated with FDP. After 5 days of incubation, RNA was extracted from the lymphocytes, using RNA-stat60. The integrity of RNA samples was evaluated by use of agarose-formaldehyde gel electrophoresis, and its quantity was determined spectrophotometrically.
The RNA was transcribed into complementary DNA (cDNA), using a reverse transcriptase enzyme. 10 μl of solution containing 1 μg of total cellular RNA was heated at 65° C. for 10 min, and then chilled on ice. To this solution was added 10 μl of a mixture containing 2× reverse transcriptase buffer (100 mM Tris-HCl, pH 8.3, 150 mM KC1, 6 MM MgCl2), 1 μg oligo(dT)12-18, 100 μg/ml of acetylated bovine serum albumin, 0.5 mM mixed deoxynucleotides (dNTP), 10 units of RNAasin, and 100 units of MMLV reverse transcriptase enzyme. The mixture was incubated for 45 min at 35° C., then chilled on ice.
The cDNA sequences for three specific interleukins (IL-1, IL-2, and IL-6) were then amplified, using polymerase chain reaction (PCR) techniques, using previously published sense and anti-sense primer sequences for rat IL-1, rat IL-2, and rat IL-6. […]

human IL-2 = test: interleukin-2 production by human T-cells stimulated by Con-A (ELISA); format: cell-based; conditions: all tested FDP concentrations, result in words
Method: In addition, the amounts of IL-2 released by human T-cells were also evaluated, using ConA stimulation in the presence or absence of FDP. These tests used a commercially available human immunoassay kit (Inter Test-2X IL-2 Elisa Kit, sold by Genzyme Corp., Cambridge, Mass.) which uses monoclonal antibodies that bind specifically to human IL-2. The results, in Table 3, indicate that FDP, at all tested concentrations, abolished IL-2 production by the stimulated human T-lymphocytes. IL-2 concentrations are expressed in picograms per milliliter of media.

[5] = tested on: mongrel dogs challenged with methacholine; test: acute experimental asthma (bronchospasm) induced in dogs by methacholine inhalation; format: in vivo, dog
[6] = one subject, reported after 10 days of FDP inhalations

For albuterol sulfate [reference compound], the PEFR (human volunteers; albuterol sulfate inhalation solution 0.005% w/v in 0.9% NaCl, two occasions, identical procedures) was “did not induce any significant change”.

`O=C(COP(=O)(O)O)[C@@H](O)[C@H](O)[C@H](O)COP(=O)(O)O` [FDP, fructose-1,6-diphosphate] was tested, and the “Activation Index” value (rat T-lymphocyte; Con-A plus 1:10 dilution of 10% FDP stock, Con-A alone 30718 ± 4316, no Con-A 527 ± 139) was 101 ± 16 counts/min, the “Activation Index” value (rat T-lymphocyte; Con-A plus 1:100 dilution of 10% FDP stock) was 190 ± 42 counts/min and the “Activation Index” value (rat T-lymphocyte; Con-A plus 1:250 dilution of 10% FDP stock) was 383 ± 170 counts/min. The “Activation Index” value (rat T-lymphocyte; Con-A plus 1:500 dilution of 10% FDP stock) was 3592 ± 974 counts/min, the “Activation Index” value (rat T-lymphocyte; Con-A plus 1:1000 dilution of 10% FDP stock) was 12288 ± 1880 counts/min and the “Activation Index” value (rat T-lymphocyte; Con-A plus 1:10,000 dilution of 10% FDP stock) was 19046 ± 3237 counts/min. For the same molecule, the “ConA-induced activation and proliferation of T-cells” value (rat T-lymphocyte; result in words, cyclosporine A tested at 0.5 to 500 ng/ml) was “able to block ConA activation of the lymphocytes; also recorded: inhibited the ConA-induced activation and proliferation of T-cells in a dose dependent manner”, the “Na+--K+ ATPase activity” value ([1]; oleander extract 1.0 mg) was 19.32 ± 0.62 micromoles of inorganic phosph and the “Na+--K+ ATPase activity” value ([1]; oleander extract 2.0 mg) was 15.75 ± 0.39 micromoles of inorganic phosph. The arterial pressure ([2]; FDP 2.5 gm/kg IP 30 min before compound 48/80 5 mg/kg IP, vs saline group, P<0.005, FIG. 1) was “significantly higher than in the saline group”, the mortality ([2]; FDP 2.5 gm/kg IP before compound 48/80 5 mg/kg IP, survival = 48 hours, saline group 100%, P<0.001) was 20% and the plasma potassium ([2]; FDP 2.5 gm/kg IP before compound 48/80 5 mg/kg IP, vs saline group, P<0.01, FIG. 2, 5 mg/kg) was “remained within normal values; also recorded: lower”. The “average arterial partial pressure of oxygen (PO2)” value ([2]; FDP 2.5 gm/kg IP before compound 48/80, saline group 98±9.2) was 121±6.1 mm Hg, the “PEFR at 10 days after the first inhalation” value ([3]; one subject with chronic cough, repeated FDP inhalation, baseline 390, P<0.01) was 520 L/min and the breathing [3, 6] was “substantially improved”. The coughing [3, 6] was “nearly disappeared”, the “RNA encoding the IL-2 protein” value [4] was “no detectable levels of RNA encoding the IL-2 protein” and the “IL-2 production by the stimulated human T-lymphocytes” value (human IL-2) was “no detectable IL-2”. The “arterial blood oxygen partial pressure, Baseline” value ([5]; dogs pre-treated with aerosolized 10% FDP for 3 minutes, before methacholine) was 89 ± 1.74 mm Hg, the “arterial blood oxygen partial pressure (PaO2), 5 min” value ([5]; dogs pre-treated with aerosolized 10% FDP, 5 min after methacholine, controls 47 ± 2.85, p = 0.007) was 70±5.62 mm Hg and 69 ± 6.49 mm Hg and the “arterial blood oxygen partial pressure (PaO2), 15 min” value ([5]; dogs pre-treated with aerosolized 10% FDP, 15 min after methacholine, controls 53 ± 3.86, p < 0.001) was 81 ± 3.36 mm Hg. For the same molecule, the PCO2 ([5]; dogs, methacholine challenge with FDP treatment) was “no consistent alterations”, the “PaO2 level at 5 minutes after FDP treatment” value ([5]; five dogs treated with FDP after (not before) methacholine, p<0.006) was 64±4.26 mm Hg and the “PaO2 level at 30 minutes after FDP treatment” value ([5]; five dogs treated with FDP after (not before) methacholine, p<0.01) was 80±4.04 mm Hg. The “PaO2 level at 15 minutes after FDP treatment” value ([5]; five dogs treated with FDP after (not before) methacholine, p<0.02) was 72±1.84 mm Hg, the side effects (human volunteers; all tests on volunteers, other than decreased heart rates and increased pulmonary ventilation rates) was “no side effects were noticed” and the “blood pressure or body temperature” value (human volunteers; five volunteers, 10% FDP nebulized) was “did not elicit any changes”. For the same molecule, the “mean peak expiratory flow rate (PEFR) following FDP administration” value (human volunteers; five volunteers, 10% FDP nebulized, 5 breaths (about 12 mg), baseline 471±29.6, P<0.005) was 529 ± 35.6 L/min, the “PEFR after inhalation session” value (human volunteers; one volunteer, 20% FDP solution for 10 min, 700 mg inhaled, baseline 616) was 667 L/min and the side effects (human volunteers; one volunteer, high dosages (700 to 750 mg, 20% or 10% solution, ten minute inhalation)) was “no side effects were detected”.
